# Data from patent publication US20240342138A1, “MICROTUBULE TARGETING AGENTS” (BPGbio, Inc., priority 2023, published 2024).
# Legend:
# DU145 cells = experiment: In vitro potency, ATPlite 1Step (NTRC Oncolines); format: cell-based; conditions: Homo sapiens, DU-145
# Protocol: FIG. 12A-12E show the efficacy of Compound lin a prostate cancer xenograft model (DU145). A) In vitro potency of Compound 1 in DU145 cells as evaluated by ATPlite 1Step™ Perkin Elmer (performed by NTRC Oncolines). B) DU145 cells were implanted subcutaneously in nude mice and tumors were allowed to grow to a volume of 210 mm^3 followed by randomization of animals into three (3) groups (vehicle control, 75 mg/kg, 150 mg/kg Compound 1) with 12 animals per group. A Compound 1 solid dispersion was prepared prior to each dosing and administered by oral gavage two times a day (BID). Mean tumor volume of each group over time and the growth of tumor in each individual animal was graphed. For each individual animal of […] group TGI (%) was calculated based on the tumor growth inhibition of individual tumor at each given day of the study compared to the average of the group for that given day of the study. P-values were calculated using two-tailed distribution and two-sample equal variance (homoscedastic) for each group treated with Compound 1 for each given day of the study in reference to vehicle control. NS p>0.05; *p≤0.05; **p≤0.01; ***p p≤0.001; **** p≤0.0001. […] The level of two biomarkers, pHH3 and CCNB1 in each tissue was measured and graphed as the Min-to-Max plot and scatter plot of the level of each biomarker. […]
# HCT116 cells = experiment: Kinetochore assembly, immunocytochemistry / confocal microscopy; format: cell-based; conditions: 300 nM, 24h
# Protocol: The HCT116 cells were cultured using DMEM media supplemented with 10% FBS and 1% Pen/Strep. Cells were maintained to a maximum of 80% confluency before being split and plated into coverslips in 12-well plates.
# 1. HCT116 cells were plated on Poly-D-Lysine German Glass Coverslips (#1.5, 18 mm)
# 2. After 24h cells were treated with 300 nM of Compound 1 and Nocodozole.
# 3. After 24h cells were washed briefly with PBS and fixed with warm 4% paraformaldehyde at room temperature for 10 min.
# 4. Cells were permeabilized and blocked in 10% goat serum, 0.5% Triton-X in PBS for 1 hr.
# 5. Cells were incubated with Primary antibodies overnight.
# 6. Washed 3× with PBS for 10 min
# 7. Incubated with secondary antibodies at room temperature for 1 hr.
# 8. Washed 3× with PBS for 10 min
# 9. Coverslips were mounted with ProLong Gold Anti-Fade Mount with DAPI and imaged with Olympus FV1200 MPE Microscope.
# 10. Images were collected with identical confocal settings for all of the samples and Z-stacked images were projected with maximal projection mode using Fluor View Software.
# 1. Selected cells of interest using the drawing/selection tools (i.e. rectangle, circle, polygon or freeform).
# 2. From the Analyze menu selected “Measure.”
# 3. Selected region with no fluorescence to be my background.
# 4. Repeated these steps for other cells in the field of view
# 5. Used the CTCF formula to calculate Mad1 expression:
# CTCF=Integrated Density−(Area of selected cell×Mean fluorescence of background readings)
# Micrographs were imaged using Olympus FV1200 MPE confocal microscope at 63× oil. White arrows indicate dividing cells. Representative images of N=3 biological replicates. Significance in difference of treated HCT116 cells to untreated cells was tested by Student t test (** p<0.01).
compound,measurement,setting,value
"COc1ccccc1-c1nc(CNC(=O)c2ccccc2OC(F)F)n[nH]1 [Compound 1, 2-(difluoromethoxy)-N-[[5-(2-methoxyphenyl)-1H-1,2,4-triazol-3-yl]methyl]benzamide]",IC50,DU145 cells; DU145,0.077 µM
same,Emax,"DU145 cells; DU145, in vitro, read-out: Maximum effect (%)",91%
same,Mitotic spindle formation,HCT116 cells; FIG. 4A,lack of proper mitotic spindle formation
same,Mad1 signal intensity,HCT116 cells; FIG. 4B,increase in Mad1 signal intensity
